# Laboratory results published in PubChem BioAssay AID270 (DTP/NCI, 2004).
# Several values for one entry are separate records, joined by “and”; a condition that tells them apart may be missing. Identical values can stand only once. Results filed as inconclusive are left out.
# System: BDF1 mice, s.c. Lewis lung carcinoma, T/C %
# Experiment: NCI In Vivo Anticancer Drug Screen. Data for tumor model Lewis Lung Carcinoma (subcutaneous) in B6D2F1 (BDF1) mice
# In short: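 Antitumor effect in vivo is scored from survival or tumor burden, reported as treated relative to vehicle controls.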
# [1] = endpoint: median survival time, dose: 1.56 mg/kg/injection, schedule: Q01DX009 (ip), vehicle: saline, higher = longer survival
# [2] = endpoint: median survival time, dose: 3.13 mg/kg/injection, schedule: Q01DX009 (ip), vehicle: saline, higher = longer survival
smiles,measurement,setting,value
CC1CCC[N-]C1.CC1CCC[N-]C1.CC1CCC[N-]C1.CC1CCC[N-]C1.[Cl][Rh][Cl] (centres undefined),T/C,"endpoint: median survival time, dose: 3.0 mg/kg/injection, schedule: Q01DX009 (ip), vehicle: Klucel (hydroxypropylcellulose) (HPC), higher = longer survival",102 % of control
same,T/C,"endpoint: median survival time, dose: 6.0 mg/kg/injection, schedule: Q01DX009 (ip), vehicle: Klucel (hydroxypropylcellulose) (HPC), higher = longer survival",91 % of control
COC(=O)C1CCC(NC(=O)N(CCCl)N=O)CC1 (centres undefined),T/C,"endpoint: median survival time, dose: 14.0 mg/kg/injection, schedule: Q01DX001 (ip), vehicle: saline with Tween-80, higher = longer survival",206 % of control
same,T/C,"endpoint: median survival time, dose: 21.0 mg/kg/injection, schedule: Q01DX001 (ip), vehicle: saline with Tween-80, higher = longer survival",223 % of control
same,T/C,"endpoint: median survival time, dose: 23.0 mg/kg/injection, schedule: Q01DX001 (ip), vehicle: saline with Tween-80, higher = longer survival",180 % of control
same,T/C,"endpoint: median survival time, dose: 24.0 mg/kg/injection, schedule: Q01DX001 (ip), vehicle: saline with Tween-80, higher = longer survival",152 % of control
same,T/C,"endpoint: median survival time, dose: 32.0 mg/kg/injection, schedule: Q01DX001 (ip), vehicle: saline with Tween-80, higher = longer survival",188 % of control
same,T/C,"endpoint: median survival time, dose: 36.0 mg/kg/injection, schedule: Q01DX001 (ip), vehicle: saline with Tween-80, higher = longer survival",219 % of control
same,T/C,"endpoint: median survival time, dose: 54.0 mg/kg/injection, schedule: Q01DX001 (ip), vehicle: saline with Tween-80, higher = longer survival",198 % of control
same,T/C,"endpoint: median survival time, dose: 81.0 mg/kg/injection, schedule: Q01DX001 (ip), vehicle: saline with Tween-80, higher = longer survival",94 % of control
COC1N(C2CC(O)C(CO)O2)C(=O)NC(=O)C1(F)Br (centres undefined),T/C,"endpoint: mean tumor weight, dose: 8.8 mg/kg/injection, schedule: Q01DX011 (ip), vehicle: saline, higher = larger tumour",45 % of control and 51 % of control and 55 % of control
same,T/C,"endpoint: mean tumor weight, dose: 13.3 mg/kg/injection, schedule: Q01DX011 (ip), vehicle: saline, higher = larger tumour",36 % of control and 56 % of control and 57 % of control
same,T/C,"endpoint: mean tumor weight, dose: 20.0 mg/kg/injection, schedule: Q01DX011 (ip), vehicle: saline, higher = larger tumour",13 % of control and 22 % of control
same,T/C,[1],110 % of control and 117 % of control
same,T/C,"endpoint: median survival time, dose: 3.12 mg/kg/injection, schedule: Q01DX009 (ip), vehicle: saline, higher = longer survival",110 % of control
same,T/C,[2],113 % of control
same,T/C,"endpoint: median survival time, dose: 6.25 mg/kg/injection, schedule: Q01DX009 (ip), vehicle: saline, higher = longer survival",109 % of control and 277 % of control
same,T/C,"endpoint: median survival time, dose: 12.5 mg/kg/injection, schedule: Q01DX009 (ip), vehicle: saline, higher = longer survival",279 % of control
COc1cc(OC)c(-c2cc(=O)c3c(OC)c(OC)c(OC)c(OC)c3o2)cc1OC,T/C,"endpoint: mean tumor weight, dose: 50.0 mg/kg/injection, schedule: Q01DX011 (ip), vehicle: saline, higher = larger tumour",73 % of control
same,T/C,"endpoint: mean tumor weight, dose: 100.0 mg/kg/injection, schedule: Q01DX011 (ip), vehicle: saline, higher = larger tumour",70 % of control
same,T/C,"endpoint: mean tumor weight, dose: 200.0 mg/kg/injection, schedule: Q01DX011 (ip), vehicle: saline, higher = larger tumour",97 % of control
same,T/C,"endpoint: mean tumor weight, dose: 400.0 mg/kg/injection, schedule: Q01DX011 (ip), vehicle: saline, higher = larger tumour",51 % of control
O=P(Oc1ccccc1)(Oc1ccccc1)c1ccccc1,T/C,"endpoint: mean tumor weight, dose: 133.0 mg/kg/injection, schedule: Q01DX011 (ip), vehicle: other, higher = larger tumour",75 % of control
same,T/C,"endpoint: mean tumor weight, dose: 200.0 mg/kg/injection, schedule: Q01DX011 (ip), vehicle: other, higher = larger tumour",91 % of control
CC(C)C(=O)[O][Sn]([c]1ccccc1)([c]1ccccc1)[c]1ccccc1,T/C,"endpoint: median survival time, dose: 3.0 mg/kg/injection, schedule: Q01DX009 (ip), vehicle: saline with Tween-80, higher = longer survival",110 % of control
same,T/C,"endpoint: median survival time, dose: 6.0 mg/kg/injection, schedule: Q01DX009 (ip), vehicle: saline with Tween-80, higher = longer survival",106 % of control
same,T/C,"endpoint: median survival time, dose: 12.0 mg/kg/injection, schedule: Q01DX009 (ip), vehicle: saline with Tween-80, higher = longer survival",97 % of control
Cc1nc(N)nc(N)c1-c1ccc(Cl)c(Cl)c1,T/C,"endpoint: mean tumor weight, dose: 0.9 mg/kg/injection, schedule: Q01DX011 (ip), vehicle: carboxymethylcellulose (CMC), higher = larger tumour",80 % of control
same,T/C,"endpoint: mean tumor weight, dose: 1.3 mg/kg/injection, schedule: Q01DX011 (ip), vehicle: carboxymethylcellulose (CMC), higher = larger tumour",89 % of control
same,T/C,"endpoint: mean tumor weight, dose: 2.0 mg/kg/injection, schedule: Q01DX011 (ip), vehicle: carboxymethylcellulose (CMC), higher = larger tumour",92 % of control
same,T/C,"endpoint: mean tumor weight, dose: 2.0 mg/kg/injection, schedule: Q01DX011 (ip), vehicle: other, higher = larger tumour",22 % of control
same,T/C,"endpoint: mean tumor weight, dose: 3.0 mg/kg/injection, schedule: Q01DX011 (ip), vehicle: carboxymethylcellulose (CMC), higher = larger tumour",45 % of control
same,T/C,"endpoint: mean tumor weight, dose: 6.0 mg/kg/injection, schedule: Q01DX011 (ip), vehicle: other, higher = larger tumour",4 % of control
same,T/C,"endpoint: median survival time, dose: 0.39 mg/kg/injection, schedule: Q01DX009 (ip), vehicle: saline, higher = longer survival",96 % of control
same,T/C,"endpoint: median survival time, dose: 0.78 mg/kg/injection, schedule: Q01DX009 (ip), vehicle: saline, higher = longer survival",108 % of control
same,T/C,"endpoint: median survival time, dose: 1.0 mg/kg/injection, schedule: Q02DX009 (ip), vehicle: Klucel (hydroxypropylcellulose) (HPC), higher = longer survival",105 % of control
same,T/C,[1],123 % of control
same,T/C,"endpoint: median survival time, dose: 2.0 mg/kg/injection, schedule: Q02DX009 (ip), vehicle: Klucel (hydroxypropylcellulose) (HPC), higher = longer survival",108 % of control
same,T/C,[2],112 % of control
